Like-named read-outs stand apart in the source and are kept apart here.
Legend:
[1] = system: caterpillars of the armyworm (Spodoptera frugiperda); test: Spodoptera frugiperda test (SPODFR spray treatment); type: in vivo; details: 168 h, read-out: activity in %
In short: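 Percent caterpillar mortality read 7 days after infestation (0% none killed, 100% all killed). Treatment was a spray of the acetone/DMF/emulsifier formulation, water-diluted to test concentration, onto Zea mays leaf discs, allowed to dry before larvae were added.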

[2] = system: green peach aphid (Myzus persicae); test: Myzus test (MYZUPE spray treatment), Use Example 4; type: in vivo; details: 144 h; for pest or weed control at 100 g/ha: read-out: activity in %
In short: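 Compound was formulated in acetone/dimethylformamide with alkylaryl polyglycol ether emulsifier and diluted in emulsifier-containing water. It was sprayed onto Chinese cabbage leaf discs infested with all stages of Myzus persicae. Mortality (%) was scored after 6 days, where 100% means all aphids killed.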

[3] = log P determination by HPLC on reversed-phase columns (EEC Directive 79/831 Annex V.A8); type: physicochemical; details: pH 2.7
In short: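 Calibration used unbranched alkan-2-ones of 3 to 16 carbons with known log P, values interpolated linearly from retention times between neighbouring standards. Acidic-range LC-MS run at pH 2.7, eluents aqueous and acetonitrile formic acid 0.1%, linear gradient 10% to 95% acetonitrile.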

[4] = system: larvae of the mustard beetle (Phaedon cochleariae); test: Phaedon test (PHAECO spray treatment); type: in vivo; details: 168 h, read-out: activity in %
In short: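 Mortality of mustard beetle larvae, expressed as percent killed (100% all, 0% none), assessed 7 days after spraying. Spray liquor made from compound in acetone plus dimethylformamide with alkylaryl polyglycol ether, diluted in emulsifier-containing water to the desired concentration.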

[5] = HPLC on reversed-phase columns (C 18), EEC Directive 79/831 Annex V.A8, read-out: logP

Structure (SMILES)	pest or weed control at 100 g/ha [1]	pest or weed control at 100 g/ha [2]	chromatographic logP [3, 5]	pest or weed control at 100 g/ha [4]	pest or weed control at 100 g/ha ([1]; 100 g/ha, after 7 days)	pest or weed control at 100 g/ha ([2]; 100 g/ha, after 6 days)	chromatographic logP [3]	pest or weed control at 100 g/ha ([4]; 100 g/ha, after 7 days)	pest or weed control at 500 g/ha ([2]; 500 g/ha, after 6 days)	chromatographic logP ([3]; reversed-phase C18 HPLC column, HPLC on reversed-phase columns (C 18), EEC Directive 79/831 Annex V.A8, read-out: logP)
Cc1cc(C#N)cc(C(=O)NC2CC2)c1NC(=O)c1cc(Cn2cc(C(F)(F)C(F)(F)C(F)(F)F)nn2)nn1-c1ncccc1Cl [Example 342]	100%	100%	3.22	100%	–	–	–	–	–	–
CNC(=O)c1cc(C#N)cc(C)c1NC(=O)c1cc(Cn2cc(C(F)(F)C(F)(F)C(F)(F)F)nn2)nn1-c1ncccc1Cl [Example 343]	100%	100%	3.04	100%	–	–	–	–	–	–
CSC[C@H](C)NC(=O)c1cc(I)cc(C)c1NC(=O)c1cc(Cn2ncc(C(F)(F)C(F)(F)F)n2)nn1-c1ncccc1Cl [Example 344]	–	–	–	–	100%	100%	4.34	100%	–	–
CSC[C@H](C)NC(=O)c1cc(Cl)cc(C)c1NC(=O)c1cc(Cn2ncc(C(F)(F)C(F)(F)F)n2)nn1-c1ncccc1Cl [Example 348]	–	–	–	–	100%	80%	4.1	100%	–	–
Cc1cc(Cl)cc(C(=O)NCC2CC2)c1NC(=O)c1cc(Cn2ncc(C(F)(F)C(F)(F)F)n2)nn1-c1ncccc1Cl [Example 349]	–	–	–	–	100%	80%	3.96	100%	–	–
CCNC(=O)c1cc(Cl)cc(C)c1NC(=O)c1cc(Cn2ncc(C(F)(F)C(F)(F)F)n2)nn1-c1ncccc1Cl [Example 350]	–	–	–	–	100%	80%	3.66	100%	–	–
CNC(=O)c1cc(Cl)cc(C)c1NC(=O)c1cc(Cn2ncc(C(F)(F)C(F)(F)F)n2)nn1-c1ncccc1Cl [Example 352]	–	–	–	–	100%	80%	3.4	100%	–	–
Cc1cc(C#N)cc(C(=O)NC2CC2)c1NC(=O)c1cc(Cn2ncc(C(F)(F)C(F)(F)F)n2)nn1-c1ncccc1Cl [Example 353]	–	–	–	–	100%	100%	3.25	100%	–	–
Cc1cc(I)cc(C(=O)NC(C)(C)C)c1NC(=O)c1cc(Cn2ncc(C(F)(F)C(F)(F)F)n2)nn1-c1ncccc1Cl [Example 356]	–	–	–	–	100%	80%	4.47	100%	–	–
CNC(=O)c1cc(I)cc(C)c1NC(=O)c1cc(Cn2ncc(C(F)(F)C(F)(F)F)n2)nn1-c1ncccc1Cl [Example 358]	–	–	–	–	100%	80%	3.64	100%	–	–
Cc1cc(Cl)cc(C(N)=O)c1NC(=O)c1cc(Cn2ncc(C(F)(F)C(F)(F)F)n2)nn1-c1ncccc1Cl [Example 359]	–	–	–	–	100%	100%	3.12	100%	–	–
Cc1cc(Cl)cc(C(=O)NC(C)(C)C)c1NC(=O)c1cc(Cn2ncc(C(F)(F)C(F)(F)F)n2)nn1-c1ncccc1Cl [Example 360]	–	–	–	–	100%	80%	4.27	100%	–	–
Cc1cc(Cl)cc(C(=O)NC(C)C)c1NC(=O)c1cc(Cn2ncc(C(F)(F)C(F)(F)F)n2)nn1-c1ncccc1Cl [Example 361]	–	–	–	–	100%	80%	3.89	100%	–	–
Cc1cc(Cl)cc(C(=O)NC2CC2)c1NC(=O)c1cc(Cn2ncc(C(F)(F)C(F)(F)F)n2)nn1-c1ncccc1Cl [Example 362]	–	–	–	–	100%	80%	3.62	100%	–	–
CCNC(=O)c1cc(C#N)cc(C)c1NC(=O)c1cc(Cn2ncc(C(F)(F)C(F)(F)F)n2)nn1-c1ncccc1Cl [Example 363]	–	–	–	–	100%	100%	3.26	100%	–	–
Cc1cc(C#N)cc(C(=O)NC(C)C)c1NC(=O)c1cc(Cn2ncc(C(F)(F)C(F)(F)F)n2)nn1-c1ncccc1Cl [Example 364]	–	–	–	–	100%	100%	3.52	100%	–	–

Structure (SMILES)	pest or weed control at 100 g/ha [1]	pest or weed control at 100 g/ha [2]	chromatographic logP [3, 5]	pest or weed control at 100 g/ha [4]	pest or weed control at 100 g/ha ([1]; 100 g/ha, after 7 days)	pest or weed control at 100 g/ha ([2]; 100 g/ha, after 6 days)	chromatographic logP [3]	pest or weed control at 100 g/ha ([4]; 100 g/ha, after 7 days)	pest or weed control at 500 g/ha ([2]; 500 g/ha, after 6 days)	chromatographic logP ([3]; reversed-phase C18 HPLC column, HPLC on reversed-phase columns (C 18), EEC Directive 79/831 Annex V.A8, read-out: logP)
CNC(=O)c1cc(C#N)cc(C)c1NC(=O)c1cc(Cn2ncc(C(F)(F)C(F)(F)F)n2)nn1-c1ncccc1Cl [Example 365]	–	–	–	–	100%	100%	3.04	100%	–	–
CNC(=O)c1cc(Cl)cc(C)c1NC(=O)c1cc(Cn2ncc(C(F)(F)C(F)(F)C(F)(F)F)n2)nn1-c1ncccc1Cl [Example 368]	100%	100%	3.76	100%	–	–	–	–	–	–
CCNC(=O)c1cc(C#N)cc(C)c1NC(=O)c1cc(Cn2ncc(C(F)(F)C(F)(F)C(F)(F)F)n2)nn1-c1ncccc1Cl [Example 372]	100%	100%	3.65	100%	–	–	–	–	–	–
CSC[C@H](C)NC(=O)c1cc(I)cc(C)c1NC(=O)c1cc(Cn2ncc(C(F)(F)C(F)(F)C(F)(F)F)n2)nn1-c1ncccc1Cl [Example 373]	100%	100%	4.65	100%	–	–	–	–	–	–
Cc1cc(I)cc(C(N)=O)c1NC(=O)c1cc(Cn2ncc(C(F)(F)C(F)(F)C(F)(F)F)n2)nn1-c1ncccc1Cl [Example 381]	100%	100%	3.7	100%	–	–	–	–	–	–
CSC[C@H](C)NC(=O)c1cc(Cl)cc(C)c1NC(=O)c1cc(Cn2ncc(C(F)(F)C(F)(F)C(F)(F)F)n2)nn1-c1ncccc1Cl [Example 383]	100%	80%	4.41	100%	–	–	–	–	–	–
Cc1cc(Cl)cc(C(N)=O)c1NC(=O)c1cc(Cn2ncc(C(F)(F)C(F)(F)C(F)(F)F)n2)nn1-c1ncccc1Cl [Example 384]	100%	100%	3.5	100%	–	–	–	–	–	–
CNC(=O)c1cc(C#N)cc(C)c1NC(=O)c1cc(Cn2ncc(C(F)(F)C(F)(F)C(F)(F)F)n2)nn1-c1ncccc1Cl [Example 387]	100%	100%	3.39	100%	–	–	–	–	–	–
Cc1cc(Cl)cc(C(=O)NC(C)(C)C)c1NC(=O)c1cc(Cn2nc(C(F)(F)F)c(C(F)(F)F)n2)nn1-c1ncccc1Cl [Example 393]	–	–	–	–	100%	90%	4.59	100%	–	–
Cc1cc(C#N)cc(C(N)=O)c1NC(=O)c1cc(Cn2nc(C(F)(F)F)c(C(F)(F)F)n2)nn1-c1ncccc1Cl [Example 396]	–	–	–	–	100%	90%	3.21	100%	–	–
CSC[C@H](C)NC(=O)c1cc(C#N)cc(C)c1NC(=O)c1cc(Cn2nc(C(F)(F)F)c(C(F)(F)F)n2)nn1-c1ncccc1Cl [Example 400]	–	–	–	–	100%	–	–	100%	100%	4.05
Cc1cc(I)cc(C(N)=O)c1NC(=O)c1cc(Cn2nc(C(F)(F)F)c(C(F)(F)F)n2)nn1-c1ncccc1Cl [Example 402]	–	–	–	–	100%	80%	3.67	100%	–	–
CSC[C@H](C)NC(=O)c1cc(Cl)cc(C)c1NC(=O)c1cc(Cn2nc(C(F)(F)F)c(C(F)(F)F)n2)nn1-c1ncccc1Cl [Example 408]	–	–	–	–	100%	90%	4.4	100%	–	–
Cc1cc(C#N)cc(C(=O)NC(C)(C)C)c1NC(=O)c1cc(Cn2nc(C(F)(F)F)c(C(F)(F)F)n2)nn1-c1ncccc1Cl [Example 412]	–	–	–	–	100%	80%	4.16	100%	–	–
CNC(=O)c1cc(C#N)cc(C)c1NC(=O)c1cc(Cn2nc(C(F)(F)F)c(C(F)(F)F)n2)nn1-c1ncccc1Cl [Example 414]	–	–	–	–	100%	100%	3.43	100%	–	–
